Laboratory results published in paper PMC12396409, “Screening and hit evaluation of a microbial metabolite library against the pathogenic Plasmodium falciparum and Toxoplasma gondii parasites” (International Journal for Parasitology: Drugs and Drug …, 2025).
Where two headings read alike, the source gives them in different places.

Experiments:
[1] = test system: T. gondii RH strain (RH-Tub-eYFP) tachyzoites; assay: microbe, parasite or virus in culture; assay type: cell-based, Toxoplasma gondii
[2] = test system: P. falciparum 3D7 parasites; assay: P. falciparum growth inhibition assay, 1-cycle (72 h treatment), SYBR DNA staining (library screen at 2 μg/mL and dose-response); assay type: cell-based, Plasmodium falciparum; conditions: for activity at 2 µg/mL: Plasmodium falciparum, 3D7
[3] = test system: P. falciparum 3D7 parasites; assay: P. falciparum growth inhibition assay, 2-cycle (120 h treatment), delayed-death screen and dose-response; assay type: cell-based, Plasmodium falciparum; conditions: for activity at 2 µg/mL: Plasmodium falciparum, 3D7
[4] = library screen at 2 μg/mL, 72 h, % growth, replicate 1, read-out: Pf_72h_%Growth_Rep1
[5] = library screen at 2 μg/mL, 72 h, % growth, replicate 2, read-out: Pf_72h_%Growth_Rep2
[6] = library screen at 2 μg/mL, 120 h, % growth, replicate 1, read-out: Pf_120h_%Growth_Rep1
[7] = library screen at 2 μg/mL, 120 h, % growth, replicate 2, read-out: Pf_120h_%Growth_Rep2

Question: `CC[C@H]1OC(=O)C[C@@H](O)[C@H](C)[C@@H](O[C@@H]2O[C@H](C)[C@@H](O)[C@H](N(C)C)[C@H]2O)[C@@H](CCN2C[C@H](C)C[C@H](C)C2)C[C@@H](C)C(=O)/C=C/C(C)=C/[C@@H]1CO[C@@H]1O[C@H](C)[C@@H](O)[C@@H](OC)[C@H]1OC.O=P(O)(O)O` [Tilmicosin phosphate, reference compound] was tested. Which Tg_72h_%Growth_Rep1 ([1]; T. gondii, 72 h, screen at 2 μg/mL, replicate 1) did it give?
Answer: The Tg_72h_%Growth_Rep1 was 41.21%.

Question: And the Tg_72h_%Growth_Rep2 ([1]; T. gondii, 72 h, screen at 2 μg/mL, replicate 2)?
Answer: Its Tg_72h_%Growth_Rep2 is 38.33%.

Question: And the “1) Growth (%) at 72 h” value ([2]; P. falciparum, 2 μg/mL, 72 h)?
Answer: The value was 22.07%.

Question: And the Mean ([2]; P. falciparum, 72 h, 2 μg/mL, mean of both replicates, growth (% of control))?
Answer: The Mean was 22.07.

Question: And the Pf_72h_%Growth_Rep1 ([2]; P. falciparum, 72 h, screen at 2 μg/mL, replicate 1)?
Answer: The Pf_72h_%Growth_Rep1 was 4.49%.

Question: And the Pf_72h_%Growth_Rep2 ([2]; P. falciparum, 72 h, screen at 2 μg/mL, replicate 2)?
Answer: The Pf_72h_%Growth_Rep2 was 39.64%.

Question: And the “2) Growth (%) at 120 h” value ([3]; P. falciparum, 2 μg/mL, 120 h)?
Answer: The value was 7.83%.

Question: And the Pf_120h_%Growth_Rep1 ([3]; P. falciparum, 120 h, screen at 2 μg/mL, replicate 1)?
Answer: Its Pf_120h_%Growth_Rep1 is 10.28%.

Question: What about the Pf_120h_%Growth_Rep2 ([3]; P. falciparum, 120 h, screen at 2 μg/mL, replicate 2) of the same compound?
Answer: The Pf_120h_%Growth_Rep2 was 5.38%.

Question: What about the “3) Fold change (72 h/120 h)” value ([3]; P. falciparum, growth at 72 h / growth at 120 h, 2 μg/mL) of the same compound?
Answer: Its value is 2.8.

Question: How did the percent parasite growth at 2 µg/mL ([1]; Toxoplasma gondii, 72 h, T. gondii, 72 h, screen at 2 μg/mL, replicate 1; read-out: Tg_72h_%Growth_Rep1) turn out when `CCCCCCCCCC(=O)N[C@@H](Cc1c[nH]c2ccccc12)C(=O)N[C@H](CC(N)=O)C(=O)N[C@@H](CC(=O)O)C(=O)N[C@@H]1C(=O)NCC(=O)N[C@@H](CCCN)C(=O)N[C@@H](CC(=O)O)C(=O)N[C@H](C)C(=O)N[C@@H](CC(=O)O)C(=O)NCC(=O)N[C@H](CO)C(=O)N[C@@H]([C@H](C)CC(=O)O)C(=O)N[C@@H](CC(=O)c2ccccc2N)C(=O)O[C@@H]1C` [Daptomycin] was run?
Answer: The percent parasite growth at 2 µg/mL was 132%.

Question: And the percent parasite growth at 2 µg/mL ([1]; Toxoplasma gondii, 72 h, T. gondii, 72 h, screen at 2 μg/mL, replicate 2; read-out: Tg_72h_%Growth_Rep2)?
Answer: The percent parasite growth at 2 µg/mL was 90.1%.

Question: What about the activity at 2 µg/mL ([2]; P. falciparum, 72 h, screen at 2 μg/mL, replicate 1, read-out: Pf_72h_%Growth_Rep1) of the same compound?
Answer: The activity at 2 µg/mL was 88.5%.

Question: What about the activity at 2 µg/mL ([2]; P. falciparum, 72 h, screen at 2 μg/mL, replicate 2, read-out: Pf_72h_%Growth_Rep2) of the same compound?
Answer: Its activity at 2 µg/mL is 114%.

Question: And the activity at 2 µg/mL ([3]; P. falciparum, 120 h, screen at 2 μg/mL, replicate 1, read-out: Pf_120h_%Growth_Rep1)?
Answer: Its activity at 2 µg/mL is 90.7%.

Question: And the activity at 2 µg/mL ([3]; P. falciparum, 120 h, screen at 2 μg/mL, replicate 2, read-out: Pf_120h_%Growth_Rep2)?
Answer: The activity at 2 µg/mL was 116%.

Question: For `Cc1cc(O)cc2oc(=O)c3c(O)cc(O)cc3c12` [Alternariol], which percent parasite growth at 2 µg/mL ([1]; Toxoplasma gondii; library screen at 2 μg/mL, 72 h, % growth, replicate 1; read-out: Tg_72h_%Growth_Rep1) is on record?
Answer: The percent parasite growth at 2 µg/mL was 37.5%.

Question: And the percent parasite growth at 2 µg/mL ([1]; Toxoplasma gondii; library screen at 2 μg/mL, 72 h, % growth, replicate 2; read-out: Tg_72h_%Growth_Rep2)?
Answer: The percent parasite growth at 2 µg/mL was 99.9%.

Question: What about the activity at 2 µg/mL [2, 4] of the same compound?
Answer: The activity at 2 µg/mL was 84.6%.

Question: What about the activity at 2 µg/mL [2, 5] of the same compound?
Answer: Its activity at 2 µg/mL is 91.2%.

Question: What about the activity at 2 µg/mL [3, 6] of the same compound?
Answer: Its activity at 2 µg/mL is 171%.

Question: And the activity at 2 µg/mL [3, 7]?
Answer: Its activity at 2 µg/mL is 90.2%.

Question: For `C[C@@H]1Cc2ccc(C(=O)N[C@@H](Cc3ccccc3)C(=O)O)c(O)c2C(=O)O1` [BIA-O1196], which Tg_72h_%Growth_Rep1 ([1]; T. gondii, 72 h, parasite screen at 2 μg/mL, % growth, replicate 1) is on record?
Answer: Its Tg_72h_%Growth_Rep1 is 126.36%.

Question: What about the Tg_72h_%Growth_Rep2 ([1]; T. gondii, 72 h, parasite screen at 2 μg/mL, % growth, replicate 2) of the same compound?
Answer: Its Tg_72h_%Growth_Rep2 is 89.16%.

Question: What about the Pf_72h_%Growth_Rep1 ([2]; P. falciparum 3D7, 72 h, parasite screen at 2 μg/mL, % growth, replicate 1) of the same compound?
Answer: Its Pf_72h_%Growth_Rep1 is 83.68%.

Question: And the Pf_72h_%Growth_Rep2 ([2]; P. falciparum 3D7, 72 h, parasite screen at 2 μg/mL, % growth, replicate 2)?
Answer: The Pf_72h_%Growth_Rep2 was 90.59%.

Question: What about the Pf_120h_%Growth_Rep1 ([3]; P. falciparum 3D7, 120 h, parasite screen at 2 μg/mL, % growth, replicate 1) of the same compound?
Answer: Its Pf_120h_%Growth_Rep1 is 89.68%.

Question: What about the Pf_120h_%Growth_Rep2 ([3]; P. falciparum 3D7, 120 h, parasite screen at 2 μg/mL, % growth, replicate 2) of the same compound?
Answer: Its Pf_120h_%Growth_Rep2 is 126.27%.

Question: How did the percent parasite growth at 2 µg/mL ([1]; Toxoplasma gondii, 72 h, T. gondii, 72 h, parasite screen 2 μg/mL, % growth, replicate 1; read-out: Tg_72h_%Growth_Rep1) turn out when `CC1(C)C[C@]23[C@@H]4COC(=O)[C@H]2CC[C@H]1[C@@H]3CC4=O` [Quadrone] was run?
Answer: The percent parasite growth at 2 µg/mL was 48.4%.

Question: And the percent parasite growth at 2 µg/mL ([1]; Toxoplasma gondii, 72 h, T. gondii, 72 h, parasite screen 2 μg/mL, % growth, replicate 2; read-out: Tg_72h_%Growth_Rep2)?
Answer: Its percent parasite growth at 2 µg/mL is 61.5%.

Question: And the activity at 2 µg/mL ([2]; P. falciparum, 72 h, parasite screen 2 μg/mL, % growth, replicate 1, read-out: Pf_72h_%Growth_Rep1)?
Answer: Its activity at 2 µg/mL is 19%.

Question: What about the activity at 2 µg/mL ([2]; P. falciparum, 72 h, parasite screen 2 μg/mL, % growth, replicate 2, read-out: Pf_72h_%Growth_Rep2) of the same compound?
Answer: Its activity at 2 µg/mL is 18.9%.

Question: What about the activity at 2 µg/mL ([3]; P. falciparum, 120 h, parasite screen 2 μg/mL, % growth, replicate 1, read-out: Pf_120h_%Growth_Rep1) of the same compound?
Answer: The activity at 2 µg/mL was 7%.

Question: What about the activity at 2 µg/mL ([3]; P. falciparum, 120 h, parasite screen 2 μg/mL, % growth, replicate 2, read-out: Pf_120h_%Growth_Rep2) of the same compound?
Answer: Its activity at 2 µg/mL is 13.5%.

Question: With `CO[C@H]1C[C@@H]2CC[C@@H](C)[C@@](O)(O2)C(=O)C(=O)N2CCCC[C@H]2C(=O)O[C@H]([C@H](C)C[C@@H]2CC[C@@H](OCCO)[C@H](OC)C2)CC(=O)[C@H](C)/C=C(\C)[C@@H](O)[C@@H](OC)C(=O)[C@H](C)C[C@H](C)/C=C/C=C/C=C/1C` [Everolimus] as the compound, how does the percent parasite growth at 2 µg/mL ([1]; Toxoplasma gondii, 72 h, library screen at 2 μg/mL, 72 h, % growth, replicate 1; read-out: Tg_72h_%Growth_Rep1) read?
Answer: The percent parasite growth at 2 µg/mL was 40.6%.

Question: And the percent parasite growth at 2 µg/mL ([1]; Toxoplasma gondii, 72 h, library screen at 2 μg/mL, 72 h, % growth, replicate 2; read-out: Tg_72h_%Growth_Rep2)?
Answer: Its percent parasite growth at 2 µg/mL is 79.1%.

Question: What about the activity at 2 µg/mL [2, 4] of the same compound?
Answer: The activity at 2 µg/mL was 71.5%.

Question: What about the activity at 2 µg/mL [2, 5] of the same compound?
Answer: The activity at 2 µg/mL was 67.8%.

Question: And the activity at 2 µg/mL [3, 6]?
Answer: Its activity at 2 µg/mL is 72.3%.

Question: And the activity at 2 µg/mL [3, 7]?
Answer: The activity at 2 µg/mL was 69.3%.

Question: Which Tg_72h_%Growth_Rep1 ([1]; T. gondii, 72 h, parasite screen 2 μg/mL, % growth, replicate 1) does the source give for `CC[C@H](C)[C@H]1NC(=O)c2c1n(C)c1ccccc1c2=O` [Quinolactacin A1] here?
Answer: Its Tg_72h_%Growth_Rep1 is 131.04%.

Question: And the Tg_72h_%Growth_Rep2 ([1]; T. gondii, 72 h, parasite screen 2 μg/mL, % growth, replicate 2)?
Answer: Its Tg_72h_%Growth_Rep2 is 75.52%.

Question: What about the Pf_72h_%Growth_Rep1 ([2]; P. falciparum, 72 h, parasite screen 2 μg/mL, % growth, replicate 1) of the same compound?
Answer: Its Pf_72h_%Growth_Rep1 is 15.83%.

Question: What about the Pf_72h_%Growth_Rep2 ([2]; P. falciparum, 72 h, parasite screen 2 μg/mL, % growth, replicate 2) of the same compound?
Answer: Its Pf_72h_%Growth_Rep2 is 6.94%.

Question: What about the Pf_120h_%Growth_Rep1 ([3]; P. falciparum, 120 h, parasite screen 2 μg/mL, % growth, replicate 1) of the same compound?
Answer: Its Pf_120h_%Growth_Rep1 is 17.07%.

Question: And the Pf_120h_%Growth_Rep2 ([3]; P. falciparum, 120 h, parasite screen 2 μg/mL, % growth, replicate 2)?
Answer: The Pf_120h_%Growth_Rep2 was -10.01%.
